Test results: patent publication US20210046079A1, “COMBINATION THERAPY TO IMPROVE BRAIN FUNCTION OR PROMOTE NEUROGENESIS FOR TREATING NEURODEGENERATIVE CONDITIONS” (UNIVERSITY OF CENTRAL FLORIDA RESEARCH FOUNDATION, INC., priority 2016, published 2021)
“Also recorded” adds a separate entry of the source. Structures can show the parent of a compound that is named as a salt.

Experiments:
[1] = test system: neural stem cells; experiment: Cell counting after immunohistochemistry of postmortem brains (BrdU, βIII-tublin, GFAP); format: in vivo, mice
Description: Once mice reach the criterion for the pre-treatment behavioral testings, posiphen (25 mg/kg) was injected (s.c.) once a day for 7 consecutive days; followed by a combination of posiphen (25 mg/kg) and NBI-18 (0, 3, 10 mg/kg) was, injected (s.c.) once a day, for seven consecutive days; followed by another series of posiphen (25 mg/kg) injections (s.c.) once a day, for seven consecutive days. On the final two days of the combination injections, an injection of BrdU (100 mg/kg) was administered separately (s.c.) once per day.

[2] = Kidney or liver toxicity; settings: in vivo
[3] = test system: 5xFAD mice; experiment: Radial water maze test of 5xFAD mice; format: in vivo; settings: for number of errors in the trial (memory), radial water maze: 5xFAD mice, compared to wild type
Description: B 6SJL-Tg(APPSwF1Lon,PSEN1*M146L*L286V)6799Vas/Mmjax transgenic (5xFAD) mice, which have 5 familial AD (FAD) mutant human genes, show pathological and behavioral signs of AD, including Aβdeposition at 2 months and progressive deficits in behavior. 5xFAD mice have successfully modeled behavior deficits seen in Alzheimer's disease in previous studies, and have been previously evaluated using the Morris water maze, open field test, and radial arm water maze. We purchased 2 males and 4 females heterozygous 5XFAD mice as breeders. We housed breeders in pairs of one male and 2 females. Gestation lasts 19-21 days. Pups (about 5-6 in each delivery) were weaned at (removed from breeding cage and separated) at 3 weeks of age. Tissue for genotyping was collected at the same time that ID numbers are applied. The genotyping was performed by PCR amplification of the SFAD gene. We used male 5xFAD mice (8months old) for this study.
The radial water maze test was performed using a maze with six arms (32 cm length and 19 cm width) radiated from the central circular region (36 cm diameter) placed in a circular pool (100 cm diameter). A clear round platform (9 cm diameter) was placed in one of the arms at 1.5 cm beneath the surface of the water, which was opacified with nontoxic white paint. The water was kept between 22-25° C. Surrounding the pool, a visual cue was placed at each end of the radial arms. Each session consists of four acquisition trials (T1-T4), followed by a 30-min delay interval and then a retention trial (T5). For each session, an escape platform was placed at the end of the goal arm, which was different between sessions. At the beginning of each trial, the mice were placed at the end of one of the remaining five non-goal arms. The mouse was positioned facing the wall, away from the center. Each trial lasts 60 seconds, during which an animal was allowed to swim in order to find the platform. The latency to locate the submerged platform and the number of entries to the non-goal arms were recorded as errors. […]

[4] = test system: APP; settings: AD model animals and patients; cited from earlier work
[5] = test system: cholinesterase; settings: Greig et al., U.S. Patent Pub. 2004/0024043 and 2004/0138282; cited from earlier work
[6] = test system: βAPP; settings: Greig et al., U.S. Patent Pub. 2004/0024043 and 2004/0138282; cited from earlier work

SMILES: CN1Cc2nc(N3CCNCC3)ncc2C1=O [NBI-18, 6-Methyl-2-(1-piperazinyl)-6,7-dihydro-5H-pyrrolo[3,4-d]-pyrimidin-5-one maleate]
- new neurons formed / neurogenesis in the brain ([1]; AD model mice, NBI-18 row: without Posiphen treatment, combination row: vs untreated AD model group): does not reflect the increase of new neurons formed
- dose at which the effect on stem cell proliferation is maxed out ([1]; brains of the animals used in the behavioral test): 3 mg/kg
- neural stem cell proliferation / number ([1]; brains of the animals used in the behavioral test, maleate): significantly increases endogenous neural stem cells; also recorded: increased stem cell proliferation
- dose range without detected kidney or liver toxicity [2]: up to 1000 mg/kg
- number of errors in the trial (memory), radial water maze ([3]; NBI-18 3 mg/kg s.c. alone): showed significant memory deficit compare to the wild type
- memory function / performance in memory tasks ([3]; AD model animals, summary statement, dose not stated): does not help to improve memory function

SMILES: CN1CC[C@]2(C)c3cc(OC(=O)Nc4ccccc4)ccc3N(C)[C@H]12 [Posiphen, (+)-phenserine]
- APP [4]: reduction of APP
- cholinesterase activity [5]: lacks cholinesterase activity
- number of errors in the trial (memory), radial water maze ([3]; Posiphen 25 mg/kg s.c. alone): showed significant memory deficit compare to the wild type
- βAPP levels in the brain [6]: dramatically reduces βAPP levels in the brain
